Results on ten compounds are retold here after patent US8921373B2, “Compounds having TRPV1 antagonistic activity and uses thereof” (Shionogi & Co., Ltd., priority 2010, dated 2014).

Molecules are shown by their SMILES. pIC50: −log10 of the molar value.

Series [1] in a line: Measurement of body temperature increase (rectal body temperature). To be noted: Crl/SD rats, oral, 1 mg/mL at 10 mL/kg. The series is classed as in vivo, rat. On the procedure: Test Animals: Selection of rats (Crl/SD rats, 7 weeks, male) for this study was based on rectal body temperature measured during the morning of the day of dosing. In addition, animals selected for this study were acclimated to both the rectal measurement procedure and to being handled and dosed to minimize spontaneous, stress-induced, increases in body temperature. The study was conducted in the animal care laboratories where the room temperature and humidity were kept. The rats were free to move and food and water during the study. Each rat was numbered with color line on the tail, housed in each cage and permitted the normal range of movement. Immediately before each body temperature was measured, they transferred to a single cage at each measurement. To reduce stress which affected the body temperature, the rats were covered with towels at the measurement. The thermistor probe was then carefully inserted into the rectum of each rat and left in place until the value on the digital display had stabilized.
Assays: On the day before dosing, rectal body temperatures were measured at 9:00, 10:00, 11:00, 12:30, 13:30, 14:30 and 15:30 to familiarize the animals with the measurement procedure prior to administration of the test or control treatments. The rats were also dosed by oral gavage without vehicle at 12:30 to acclimate and familiarized the animals with the handling and dosing procedure.
On the day of dosing, only rats whose rectal body temperatures were within the range of 37.0° C. to 37.7° C. were selected for this study. Rectal body temperatures were measured at 9:00, 10:00 and 11:00. Rats whose rectal body temperatures were over 37.9° C. at 10:00, and were outside the range of 37.0° C. to 37.7° C. at 11:00 were excluded from the study. The selected rats were divided to several groups based on their rectal body temperatures at 11:00. Rectal body temperatures of the selected rats were measured again at 12:30, and any rats whose rectal body temperature was 38.0° C. or greater were excluded from the study.
Following the group assignment, test compounds or vehicle was administrated to the rats. Each test compound was dissolved in 0.5% methylcellurose and the final concentration of the compound was adjusted to 1 mg/mL. Test compound was orally administrated in a volume 10 mL/kg once. 10 mL/kg of vehicle (0.5% methylcellurose) was administered to the vehicle group. The rectal body temperatures were measured 0.5, 1 and 2 hrs after the administration. The study was conducted in the animal care laboratories where the room temperature and humidity were kept.
Body temperature increase (ΔTb) was calculated from the difference from an average of the vehicle group at each time point.

The target in series [2] is T1, human recombinant TRPV1 (Homo sapiens (Human), UniProt Q8NER1). In words: TRPV1 Capsaicin-Based Assay (Protocol 2, TRPV1/CHO cells, Fluo-4, FLIPR). The series is classed as cell-based. To be noted: TRPV1/CHO cells, capsaicin 100 nM final; read-out: IC50 value by the Capsaicin-Based Assay. In short, it runs like this:
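CHO cells stably expressing human TRPV1 were loaded with 3 μM Fluo-4 for 1 h, then given compounds in HBSS/1 mM CaCl2/20 mM HEPES pH 7.4 with 1% DMSO for 2 min before 100 nM capsaicin (final). FLIPR fluorescence recorded over the full course; curves fitted.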

Series [3] has as its target T1, human recombinant TRPV1. In words: TRPV1 pH-Based Assay (Protocol 2, Ca2+ response in TRPV1/CHO cells, Fura-2). The series is classed as cell-based. To be noted: TRPV1/CHO cells, pH 5.0-5.1; read-out: IC50 value by the pH-Based Assay. In outline: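 CHO cells stably expressing human TRPV1, Fura-2 loaded, given compound (1% DMSO in 10× stock) before acid challenge to final pH 5.0-5.1 (3.2 or 3.3 mM H2SO4). 340/380 nm ratio recorded at 0.5 Hz; maximal ratio after agonist addition versus 16-point baseline used as response.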

The test system of series [4] is FCA-induced inflammation of the rat hind paw. The series can be described thus: Freund's complete adjuvant (FCA) model of inflammatory pain, reversal of hyperalgesia. The series is classed as in vivo. The following applies: rats. Here is the method:
Test Animals: Each experiment uses rats weighing between 200-260 g at the start of the experiment. The rats are group-housed and have free access to food and water at all times, except prior to oral administration of a compound of Formula I when food is removed for 16 hours before dosing. A control group acts as a comparison to rats treated with a compound of Formula I. The control group is administered the carrier for the compound of Formula I. The volume of carrier administered to the control group is the same as the volume of carrier and compound of Formula I administered to the test group.
Inflammatory Pain: To assess the actions of the compounds of Formula I on the treatment or prevention of inflammatory pain the Freund's complete adjuvant (“FCA”) model of inflammatory pain is used. […] 24 hour post injection, the animal is assessed for response to noxious mechanical stimuli by determining the PWT, or to noxious thermal stimuli by determining the PWL, as described below. […] Responses to noxious mechanical or thermal stimuli are then determined 1, 3, 5 and 24 hours post administration. […]
Response to Mechanical Stimuli as an Assessment of Mechanical Hyperalgesia: The paw pressure assay can be used to assess mechanical hyperalgesia. For this assay, hind paw withdrawal thresholds (PWT) to a noxious mechanical stimulus are determined using an analgesymeter (Model 7200, commercially available from Ugo Basile of Italy) as described in C. […] PWT is determined once for each rat at each time point and only the affected (ipsilateral) paw is tested.
Response to Thermal Stimuli as an Assessment of Thermal Hyperalgesia: The plantar test can be used to assess thermal hyperalgesia. For this test, hind paw withdrawal latencies (PWL) to a noxious thermal stimulus are determined using a plantar test apparatus (commercially available from Ugo Basile of Italy) following the technique described by K. Hargreaves et al., “A New and Sensitive Method for Measuring Thermal Nociception in Cutaneous Hyperalgesia,” Pain 32(1):77-88 (1988). […] Three latencies are determined at each time point and averaged. […]

T1 sequence (Q8NER1 whole entry): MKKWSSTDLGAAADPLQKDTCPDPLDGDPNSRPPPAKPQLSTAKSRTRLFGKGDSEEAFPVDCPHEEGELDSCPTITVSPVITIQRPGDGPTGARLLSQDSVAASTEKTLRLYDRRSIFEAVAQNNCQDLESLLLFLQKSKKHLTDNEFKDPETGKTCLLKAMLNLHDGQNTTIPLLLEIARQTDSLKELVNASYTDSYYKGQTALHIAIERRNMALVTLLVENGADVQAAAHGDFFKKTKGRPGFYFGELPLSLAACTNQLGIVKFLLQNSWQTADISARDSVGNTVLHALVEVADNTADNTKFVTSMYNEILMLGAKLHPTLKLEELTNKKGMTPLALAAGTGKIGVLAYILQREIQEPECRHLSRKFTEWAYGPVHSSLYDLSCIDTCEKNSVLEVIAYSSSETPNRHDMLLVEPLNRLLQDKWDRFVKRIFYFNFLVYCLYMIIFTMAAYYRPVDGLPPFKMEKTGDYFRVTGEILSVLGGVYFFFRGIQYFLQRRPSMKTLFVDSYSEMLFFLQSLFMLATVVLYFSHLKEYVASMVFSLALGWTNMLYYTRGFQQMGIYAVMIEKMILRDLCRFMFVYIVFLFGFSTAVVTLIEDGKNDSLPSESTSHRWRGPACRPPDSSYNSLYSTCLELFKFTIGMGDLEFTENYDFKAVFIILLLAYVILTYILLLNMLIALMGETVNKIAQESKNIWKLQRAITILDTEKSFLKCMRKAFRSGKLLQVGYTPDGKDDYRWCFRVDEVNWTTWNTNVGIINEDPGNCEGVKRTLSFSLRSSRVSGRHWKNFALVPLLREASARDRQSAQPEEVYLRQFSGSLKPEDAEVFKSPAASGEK

Turning to `O=C(Nc1nc2ccc(F)cc2s1)N1CCN(c2ncc(C[C@H](O)CO)cc2Cl)CC1` [ADR], the Body temperature increase result in series [1] was “less than 0.5 °C”. The pIC50 at human recombinant TRPV1 [2] and at human recombinant TRPV1 [3] was no less than 7.30 each time.
Consider `O=C(Nc1nc2ccc(Cl)cc2s1)N1CCN(c2ncc(C[C@H](O)CO)cc2Cl)CC1` [ADW], for which the Body temperature increase result in series [1] was “less than 0.5 °C”. In addition, the pIC50 at human recombinant TRPV1 [2] and on human recombinant TRPV1 [3] was no less than 7.30 in each case.
Take `O=C(Nc1nc2ccc(Cl)cc2s1)N1CCN(c2ncc(C[C@@H](O)CO)cc2Cl)CC1` [ADT]: the Body temperature increase entry in series [1] was “less than 0.5 °C”. Further, the pIC50 at human recombinant TRPV1 [2] and on human recombinant TRPV1 [3] was no less than 7.30 throughout.
For `Cc1cc(NC(=O)N2CC=C(c3ncc(C[C@H](O)CO)cc3F)CC2)ccc1C(F)(F)F` [ABY, (S)-5-(2,3-dihydroxypropyl)-3-fluoro-N-(3-methyl-4-(trifluoromethyl)phenyl)-5′,6′-dihydro-[2,4′-bipyridine]-1′(2′H)-carboxamide], the Body temperature increase entry in series [1] is “less than 0.5 °C”. The pIC50 at human recombinant TRPV1 [2] and at human recombinant TRPV1 [3] was no less than 7.30 throughout.
On to `Cc1ccc2nc(NC(=O)N3CCN(c4ncc(C[C@@H](O)CO)cc4Cl)CC3)sc2c1` [ADU], for which the Body temperature increase entry in series [1] is “less than 0.5 °C”. In addition, the pIC50 at human recombinant TRPV1 [2] and at human recombinant TRPV1 [3] was no less than 7.30 each time.
As to `O=C(Nc1nc2ccc(F)cc2s1)N1CCN(c2ncc(C[C@@H](O)CO)cc2F)CC1` [ACW, (R)-4-(5-(2,3-dihydroxypropyl)-3-fluoropyridin-2-yl)-N-(6-fluorobenzo[d]-thiazol-2-yl)piperazine-1-carboxamide], in series [1], the Body temperature increase entry is “less than 0.5 °C”. Also, the pIC50 at human recombinant TRPV1 [2] and on human recombinant TRPV1 [3] was no less than 7.30 in each case.
As to `O=C(Nc1nc2ccc(Cl)cc2s1)N1CCN(c2ncc(C[C@@H](O)CO)cc2F)CC1` [ACX, (R)-N-(6-chlorobenzo[d]thiazol-2-yl)-4-(5-(2,3-dihydroxypropyl)-3-fluoropyridin-2-yl)piperazine-1-carboxamide], the Body temperature increase entry in series [1] was “less than 0.5 °C”. Besides, the pIC50 at human recombinant TRPV1 [2] and on human recombinant TRPV1 [3] was no less than 7.30 each time.
In the case of `C[C@H]1CN(c2ncc(C[C@@H](O)CO)cc2C(F)(F)F)CCN1C(=O)Nc1nc2ccc(F)cc2s1` [AGU], the “Percentage reversal of hyperalgesia, % Reversal (3 mg/Kg, 3 hours post administration)” value in series [4] was 71%. Besides, the pIC50 at human recombinant TRPV1 [2] and at human recombinant TRPV1 [3] was no less than 7.30 each time.
In the case of `Cc1ccc2nc(NC(=O)N3CCN(c4ncc(C[C@@H](O)CO)cc4F)C[C@@H]3C)sc2c1` [AEM], the “Percentage reversal of hyperalgesia, % Reversal (3 mg/Kg, 3 hours post administration)” value in series [4] was 59.7%. The pIC50 on human recombinant TRPV1 [3] was no less than 7.30.
In the case of `Cc1ccc2nc(NC(=O)N3CCN(c4ncc(C[C@@H](O)CO)cc4F)CC3)sc2c1` [ACY, (R)-4-(5-(2,3-dihydroxypropyl)-3-fluoropyridin-2-yl)-N-(6-methylbenzo[d]-thiazol-2-yl)piperazine-1-carboxamide], the Body temperature increase result in series [1] is “less than 0.5 °C”. Also, the pIC50 at human recombinant TRPV1 [2] and on human recombinant TRPV1 [3] was no less than 7.30 each time.
